Assay results: patent US5874272A, “Inosine-guanosine kinase” (Kyowa Hakko Kogyo Co., Ltd., priority 1998, dated 1999)

How the values were obtained:
Assay type in all cases: biochemical
inosine-guanosine kinase [1] = molecular target: T1, inosine-guanosine kinase (Escherichia coli, UniProt P0AEW6); assay: Substrate specificity (phosphate-donor / phosphate-acceptor); conditions: for suitability as phosphate-donor (in words): 5 mM phosphate source instead of ATP, 300 mM KCl, 30° C., inosine as acceptor; for suitability as phosphate-acceptor (in words): ATP or dATP as phosphate-donor
T1 construct: made in house; host or cells: Escherichia coli
T1 sequence (P0AEW6 1-434): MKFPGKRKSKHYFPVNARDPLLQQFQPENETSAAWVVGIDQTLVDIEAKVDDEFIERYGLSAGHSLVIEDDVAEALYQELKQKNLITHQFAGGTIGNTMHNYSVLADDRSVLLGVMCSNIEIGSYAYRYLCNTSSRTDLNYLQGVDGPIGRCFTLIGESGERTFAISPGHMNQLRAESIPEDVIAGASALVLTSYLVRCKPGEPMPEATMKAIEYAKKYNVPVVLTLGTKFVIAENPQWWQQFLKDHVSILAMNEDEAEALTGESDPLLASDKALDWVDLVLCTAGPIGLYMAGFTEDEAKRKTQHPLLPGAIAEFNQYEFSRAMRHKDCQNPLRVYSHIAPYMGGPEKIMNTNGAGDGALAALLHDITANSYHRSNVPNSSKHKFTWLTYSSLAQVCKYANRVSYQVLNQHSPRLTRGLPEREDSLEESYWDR
Method: (§1) The activity of the inosine-guanosine kinase obtained is determined as follows. A reaction solution (hereafter referred to as reaction solution a) having a composition of 100 mM HEPES buffer (pH 7.2), 10 mM MgSO4, 50 mM KCl, 1 mM ATP and 1 mM inosine is brought into contact with the inosine-guanosine kinase in a concentration of about 10 μg protein/ml followed by reaction at 30° C. for about 30 minutes. During the course of reaction, a part of the reaction solution is subjected to sampling intermittently. After the reaction solution is diluted to 1/20 with 0.2M NaH2 PO4 (adjusted the pH to 2.6 with H3 PO4) to stop the reaction, an amount of 5'-IMP in the stopped reaction solution is quantitatively determined by HPLC. Analysis by HPLC is made by using 0.2M NaH2 PO4 (pH 2.6) at a flow rate of 1 ml/min. as an eluting solution and Asahipak GS-320H (manufactured by Asahi Chemical Co., Ltd.) as a column. Detection of components was made by the absorbance at UV absorbance at 254 nm as an index. Quantitative determination was made by comparing absorbancy with that of the standard.
In the method for determination of inosine-guanosine kinase activity described above, a reaction is carried out at 30° C. by changing the concentration of KCl to 300 mM in the composition of reaction solution a and adding various neutralized phosphate sources to the reaction solution instead of ATP in a final concentration of 5 mM. […] Where ATP or dATP is used as phosphate-donor, inosine and guanosine are preferred as phosphate-acceptor.
FIG. 1 relates to substrate specificity for inosine-guanosine kinase, wherein the ordinate represents an amount of 5'-IMP produced and the abscissa represents time.

inosine-guanosine kinase [2] = molecular target: T1, inosine-guanosine kinase; assay: Activation of inosine-guanosine kinase by divalent or trivalent metal ion salts instead of MgSO4; conditions: for Produced IMP: 10 mM metal salt instead of MgSO4, 300 mM KCl; for activating action on the enzyme (in words): metal ion salt instead of MgSO4, 300 mM KCl
Method: as §1
In the method for determination of inosine-guanosine kinase activity described above, a reaction is carried out by changing the buffer to Tris-hydrochloride buffer (pH 8.0), and varying the concentration of KCl in the composition of reaction solution a. […] Next, activation is examined in the system where the concentration of KCl is changed to 300 mM in the composition of reaction solution a, by adding various divalent or trivalent metal ion salts instead of MgSO4.

inosine-guanosine kinase [3] = molecular target: T1, inosine-guanosine kinase; assay: Effect of added metal salts on inosine-guanosine kinase activity (inhibitor test); conditions: 300 mM KCl; for Relative Activity (%): 1 mM metal salt added to reaction solution a, 30° C., 30 minutes, no metal salt = 100; for inhibition of the enzyme by metal ions (in words): 1 mM metal salt
Method: as §1
In the method for determination of inosine-guanosine kinase activity described above, the activity is determined by reacting at 30° C. for 30 minutes except that the concentration of KCl is changed to 300 mM and 1 mM metal salt is added to the composition of reaction solution a. The activity is determined as a standard when no metal salt is added. The enzyme is inhibited by metal ions such as CO^2+, Cu^2+, Zn^2+, etc.

inosine-guanosine kinase [4] = molecular target: T1, inosine-guanosine kinase; assay: K+ (KCl) dependency of inosine-guanosine kinase; conditions: Tris-hydrochloride buffer (pH 8.0); KCl varied, or 100 mM NaCl instead of KCl
Method: as §1
In the method for determination of inosine-guanosine kinase activity described above, a reaction is carried out by changing the buffer to Tris-hydrochloride buffer (pH 8.0), and varying the concentration of KCl in the composition of reaction solution a. […]

SMILES	suitability as phosphate-donor (in words) (inosine-guanosine kinase [1])	Produced IMP (inosine-guanosine kinase [2]) [mM]	Relative Activity (%) (inosine-guanosine kinase [3])	other results
O=c1ccn([C@@H]2O[C@H](COP(=O)(O)OP(=O)(O)OP(=O)(O)O)[C@@H](O)[C@H]2O)c(=O)[nH]1 [UTP, uridine triphosphate]	the reaction proceeds a little bit			
[Cl-].[Cl-].[Co+2] [CoCl2]		0.01	32	
O=P(O)(O)O [phosphoric acid]	could not be phosphate-donors			
[Cl][Mn][Cl] [MnCl2]		0.51	134	
[Cu+2] [Cu^2+]				inhibition of the enzyme by metal ions (in words) (inosine-guanosine kinase [3]): inhibited
CC(=O)OP(=O)(O)O [acetylphosphoric acid]	could not be phosphate-donors			
Nc1ncnc2c1ncn2[C@H]1C[C@H](O)[C@@H](COP(=O)(O)OP(=O)(O)OP(=O)(O)O)O1 [dATP, deoxyadenosine triphosphate]	good substrate			
[Mg+2] [Mg^2+]				activating action on the enzyme (in words) (inosine-guanosine kinase [2]): exhibit an activating action
[F-].[Na+] [NaF]			96	
[Cl][Fe]([Cl])[Cl] [FeCl3]		0	131	
O=P(O)(O)OP(=O)(O)O [pyrophosphoric acid]	could not be phosphate-donors			
Nc1nc2c(ncn2[C@@H]2O[C@H](CO)[C@@H](O)[C@H]2O)c(=O)[nH]1 [guanosine]				suitability as phosphate-acceptor (in words) (inosine-guanosine kinase [1]): preferred
O=C(O)c1cc(=O)[nH]c(=O)n1[C@@H]1O[C@H](COP(=O)(O)O)[C@@H](O)[C@H]1O [5'-OMP, orotic acid monophosphate]	could not be phosphate-donors			
O=S(=O)([O-])[O-].[Mg+2] [MgSO4]		0.68		
O=P(O)(O)OP(=O)(O)OP(=O)(O)OP(=O)(O)O [tetrapolyphosphoric acid]	could not be phosphate-donors			
[Cl-].[Cl-].[Mg+2] [MgCl2]		0.60		
[Mn+2] [Mn^2+]				activating action on the enzyme (in words) (inosine-guanosine kinase [2]): exhibit an activating action
[Cl][Cu][Cl] [CuCl2]		0	1	

SMILES	suitability as phosphate-donor (in words) (inosine-guanosine kinase [1])	Produced IMP (inosine-guanosine kinase [2]) [mM]	Relative Activity (%) (inosine-guanosine kinase [3])	other results
O=S(=O)([O-])[O-].[Mn+2] [MnSO4]		0.64		
[Ba+2].[Cl-].[Cl-] [BaCl2]		0	116	
[Zn+2] [Zn^2+]				inhibition of the enzyme by metal ions (in words) (inosine-guanosine kinase [3]): inhibited
[K+] [K^+]				monovalent cation requirement for activation (in words) (inosine-guanosine kinase [4]): requires
[Co+2] [CO^2+]				inhibition of the enzyme by metal ions (in words) (inosine-guanosine kinase [3]): inhibited
Nc1ncnc2c1ncn2[C@@H]1O[C@H](COP(=O)(O)OP(=O)(O)O)[C@@H](O)[C@H]1O [ADP, adenosine diphosphate]	could not be phosphate-donors			
[Ca+2].[Cl-].[Cl-] [CaCl2]		0	107	
Nc1ncnc2c1ncn2[C@@H]1O[C@H](COP(=O)(O)O)[C@@H](O)[C@H]1O [5'-AMP, adenosine monophosphate]	could not be phosphate-donors			
[Cl][Fe][Cl] [FeCl2]		0	112	
O=P(O)(O)OP(=O)(O)OP(=O)(O)O [tripolyphosphoric acid]	could not be phosphate-donors			
Nc1nc2c(ncn2[C@@H]2O[C@H](COP(=O)(O)OP(=O)(O)OP(=O)(O)O)[C@@H](O)[C@H]2O)c(=O)[nH]1 [GTP, guanosine triphosphate]	could not be phosphate-donors			
Nc1ccn([C@@H]2O[C@H](COP(=O)(O)O)[C@@H](O)[C@H]2O)c(=O)n1 [5'-CMP, cytidine monophosphate]	could not be phosphate-donors			
Nc1ncnc2c1ncn2[C@@H]1O[C@H](COP(=O)(O)OP(=O)(O)OP(=O)(O)O)[C@@H](O)[C@H]1O [ATP, adenosine triphosphate]	good substrate			
CC(=O)[O-].CC(=O)[O-].[Zn+2] [Zn(CH3 COO)2]		0	5	
[Cl-].[Na+] [NaCl]			104	monovalent cation requirement for activation (in words) (inosine-guanosine kinase [4]): no reaction proceeds
O=S(=O)([O-])[O-].[Zn+2] [ZnSO4]		0	5	
OC[C@H]1O[C@@H](n2cnc3c(O)ncnc32)[C@H](O)[C@@H]1O [inosine]				suitability as phosphate-acceptor (in words) (inosine-guanosine kinase [1]): preferred
